Measurements published in PubChem BioAssay AID330 (DTP/NCI, 2004).
Values joined by “and” are separate entries in the source; they are usually repeats but may differ in a detail not shown here. Equal values may be shown once. Inconclusive results and toxic doses are left out. How the source made its calls: active means survival T/C of 150% or more; inactive means T/C below 125% in these data.

Test system: P388 leukemia ip, CD2F1 mice, survival T/C
Test: NCI In Vivo Anticancer Drug Screen. Data for tumor model P388 Leukemia (intraperitoneal) in CD2F1 (CDF1) mice
Details: endpoint: median survival time, higher = longer survival
How it was run: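 Mice carrying the transplanted tumor received test compound or vehicle. Survival was recorded in each group, and the value is the treated-group measurement divided by that of the vehicle-treated control group.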

[1] = dose: 50.0 mg/kg/injection, schedule: Q01DX005 (ip), vehicle: saline with Tween-80
[2] = dose: 100.0 mg/kg/injection, schedule: Q01DX005 (ip), vehicle: saline with Tween-80
[3] = dose: 200.0 mg/kg/injection, schedule: Q01DX005 (ip), vehicle: saline with Tween-80
[4] = dose: 50.0 mg/kg/injection, schedule: Q01DX009 (ip), vehicle: Klucel (hydroxypropylcellulose) (HPC)
[5] = dose: 50.0 mg/kg/injection, schedule: Q01DX009 (ip), vehicle: saline with Tween-80
[6] = dose: 100.0 mg/kg/injection, schedule: Q01DX009 (ip), vehicle: saline with Tween-80
[7] = dose: 60.0 mg/kg/injection, schedule: Q01DX005 (ip), vehicle: saline with Tween-80
[8] = dose: 120.0 mg/kg/injection, schedule: Q01DX005 (ip), vehicle: saline with Tween-80
[9] = dose: 240.0 mg/kg/injection, schedule: Q01DX005 (ip), vehicle: saline with Tween-80
[10] = dose: 12.5 mg/kg/injection, schedule: Q01DX005 (ip), vehicle: Klucel (hydroxypropylcellulose) (HPC)
[11] = dose: 25.0 mg/kg/injection, schedule: Q01DX005 (ip), vehicle: Klucel (hydroxypropylcellulose) (HPC)
[12] = dose: 50.0 mg/kg/injection, schedule: Q01DX005 (ip), vehicle: Klucel (hydroxypropylcellulose) (HPC)
[13] = dose: 60.0 mg/kg/injection, schedule: Q01DX005 (ip), vehicle: Klucel (hydroxypropylcellulose) (HPC)
[14] = dose: 120.0 mg/kg/injection, schedule: Q01DX005 (ip), vehicle: Klucel (hydroxypropylcellulose) (HPC)
[15] = dose: 240.0 mg/kg/injection, schedule: Q01DX005 (ip), vehicle: Klucel (hydroxypropylcellulose) (HPC)
[16] = dose: 100.0 mg/kg/injection, schedule: Q01DX005 (ip), vehicle: Klucel (hydroxypropylcellulose) (HPC)

Measured: T/C

COC(=O)/C=C\C1(CCC(=O)OC)N=C(c2ccccc2)OC1=O (configuration not stated)
inactive: [1] 101 % of control | [2] 92 % of control | [3] 96 % of control

COc1cc(C(=O)c2cc3c(cc2C)OCO3)cc(OC)c1OC
inactive: dose: 25.0 mg/kg/injection, schedule: Q01DX009 (ip), vehicle: Klucel (hydroxypropylcellulose) (HPC) 109 % of control | [4] 113 % of control

CC[C@@]1(O)C(=O)OCc2c1cc1n(c2=O)Cc2cc3cc(OC)ccc3nc2-1
inactive: dose: 3.13 mg/kg/injection, schedule: Q04DX003 (ip), vehicle: other 98 % of control
active: dose: 1.57 mg/kg/injection, schedule: Q04DX003 (ip), vehicle: other 165 % of control

O=C1NC(=O)C(CCC[n+]2ccccc2)(c2ccccc2)C(=O)N1
inactive: [5] 107 % of control | [6] 107 % of control

C=C(C[P+](c1ccccc1)(c1ccccc1)c1ccccc1)C(=O)OCC
inactive: dose: 3.12 mg/kg/injection, schedule: Q01DX001 (ip), vehicle: saline 111 % of control | dose: 6.25 mg/kg/injection, schedule: Q01DX001 (ip), vehicle: saline 109 % of control | dose: 12.5 mg/kg/injection, schedule: Q01DX001 (ip), vehicle: saline 113 % of control | dose: 12.5 mg/kg/injection, schedule: Q01DX001 (ip), vehicle: suspension in saline 117 % of control

O=C(O)c1cc2c([nH]1)-c1cccnc1C(=O)C2=O
inactive: [7] 101 % of control | [8] 105 % of control | [9] 101 % of control

Cn1c(=O)n(CCn2c(=O)n(C)c3ccccc32)c2ccccc21
inactive: dose: 100.0 mg/kg/injection, schedule: Q01DX001 (ip), vehicle: Klucel (hydroxypropylcellulose) (HPC) 91 % of control | dose: 200.0 mg/kg/injection, schedule: Q01DX001 (ip), vehicle: Klucel (hydroxypropylcellulose) (HPC) 92 % of control | dose: 400.0 mg/kg/injection, schedule: Q01DX001 (ip), vehicle: Klucel (hydroxypropylcellulose) (HPC) 91 % of control

CCC1OC(OC)C=CC1=O (configuration not stated)
inactive: [10] 113 % of control | dose: 12.5 mg/kg/injection, schedule: Q01DX005 (ip), vehicle: saline 101 % of control | [11] 114 % of control | dose: 25.0 mg/kg/injection, schedule: Q01DX005 (ip), vehicle: saline 108 % of control | [12] 124 % of control | dose: 50.0 mg/kg/injection, schedule: Q01DX005 (ip), vehicle: saline 98 % of control | dose: 100.0 mg/kg/injection, schedule: Q01DX005 (ip), vehicle: saline 104 % of control

CNCC1c2ccccc2CSc2c(OC)cccc21 (configuration not stated)
inactive: dose: 6.25 mg/kg/injection, schedule: Q01DX005 (ip), vehicle: Klucel (hydroxypropylcellulose) (HPC) 101 % of control | [10] 98 % of control | [11] 98 % of control

O=C(NCC1CC1)NC(=O)c1c(F)cccc1Cl
inactive: [13] 102 % of control | [14] 106 % of control | [15] 106 % of control

CC(/C=C1\C(=O)N(C)C(CC(C)C(Cl)(Cl)Cl)C(=O)N1C)C(Cl)(Cl)Cl (configuration not stated)
inactive: dose: 4.75 mg/kg/injection, schedule: Q01DX005 (ip), vehicle: saline with Tween-80 101 % of control | dose: 9.5 mg/kg/injection, schedule: Q01DX005 (ip), vehicle: saline with Tween-80 100 % of control | dose: 19.0 mg/kg/injection, schedule: Q01DX005 (ip), vehicle: saline with Tween-80 95 % of control | dose: 38.0 mg/kg/injection, schedule: Q01DX005 (ip), vehicle: saline with Tween-80 101 % of control

COc1ccc(C(=S)NC(O)C(=O)c2ccc(Cl)cc2)cc1OC (configuration not stated)
inactive: [5] 103 % of control | [6] 103 % of control

O=C(O)C(C1CCCCC1)C1(O)CCCCCC1 (configuration not stated)
inactive: [12] 97 % of control | [16] 103 % of control | dose: 200.0 mg/kg/injection, schedule: Q01DX005 (ip), vehicle: Klucel (hydroxypropylcellulose) (HPC) 100 % of control

CCCN1CN2CCOC2C(C)(C)C1 (configuration not stated)
inactive: dose: 40.0 mg/kg/injection, schedule: Q01DX009 (ip), vehicle: saline with Tween-80 112 % of control | dose: 80.0 mg/kg/injection, schedule: Q01DX009 (ip), vehicle: saline with Tween-80 114 % of control

COc1ccc2c(c1)CCC(C(O)C1(Sc3c(OC)cccc3OC)CC1)C2=O (configuration not stated)
inactive: [1] 100 % of control | [2] 100 % of control | [3] 100 % of control

CCOC(=O)C1=C(NC23CC4CC(CC(C4)C2)C3)OCC1=O
inactive: [7] 107 % of control | [8] 110 % of control

NC1=C(Br)C(=O)C(N)=C(Br)C1=O
inactive: [13] 100 % of control | [14] 97 % of control | [15] 105 % of control

O=C1Nc2ccc(Br)cc2/C1=c1/sc2nc3ccccc3n2c1=O
inactive: dose: 1.56 mg/kg/injection, schedule: Q01DX005 (ip), vehicle: saline with Tween-80 100 % of control | dose: 3.12 mg/kg/injection, schedule: Q01DX005 (ip), vehicle: saline with Tween-80 98 % of control | dose: 6.25 mg/kg/injection, schedule: Q01DX005 (ip), vehicle: saline with Tween-80 100 % of control | [12] 87 % of control | [16] 94 % of control

Cc1ccccc1N
inactive: dose: 50.0 mg/kg/injection, schedule: Q01DX009 (ip), vehicle: saline sonified 100 % of control | dose: 100.0 mg/kg/injection, schedule: Q01DX009 (ip), vehicle: saline sonified 100 % of control | dose: 200.0 mg/kg/injection, schedule: Q01DX009 (ip), vehicle: saline sonified 104 % of control

N#CCCN(CCC#N)Cc1c(O)c(O)c(CN(CCC#N)CCC#N)c2ccccc12
inactive: [1] 102 % of control and 105 % of control | [2] 115 % of control and 118 % of control | [3] 122 % of control and 124 % of control

CC(C)NCC(N)C(=O)O (configuration not stated)
inactive: dose: 55.0 mg/kg/injection, schedule: Q01DX001 (ip), vehicle: saline 102 % of control | dose: 110.0 mg/kg/injection, schedule: Q01DX001 (ip), vehicle: saline 102 % of control | dose: 220.0 mg/kg/injection, schedule: Q01DX001 (ip), vehicle: saline 99 % of control

CCCCCCN(CCCCCC)CC(O)c1cc2c(c3ccccc13)CCCC2 (configuration not stated)
inactive: [1] 94 % of control | [2] 103 % of control | [3] 103 % of control

COC(=O)c1ccc(-c2cc(Cl)c3cc(S(=O)(=O)F)ccc3n2)cc1
inactive: dose: 100.0 mg/kg/injection, schedule: Q04DX003 (ip), vehicle: saline with Tween-80 95 % of control | dose: 200.0 mg/kg/injection, schedule: Q04DX003 (ip), vehicle: saline with Tween-80 90 % of control | dose: 400.0 mg/kg/injection, schedule: Q04DX003 (ip), vehicle: saline with Tween-80 90 % of control

O=C(c1ccccc1)C(C(=O)c1ccccc1)S(=O)(=O)c1ccccc1
inactive: [1] 93 % of control | [2] 93 % of control | [3] 91 % of control

CCOC(=O)C(Cc1ccc(O)cc1)Nc1nc2ccccc2o1 (configuration not stated)
inactive: [5] 95 % of control | [6] 105 % of control | dose: 200.0 mg/kg/injection, schedule: Q01DX009 (ip), vehicle: saline with Tween-80 103 % of control | dose: 400.0 mg/kg/injection, schedule: Q01DX009 (ip), vehicle: saline with Tween-80 96 % of control

COc1cc(/C=C/c2cccs2)oc(=O)c1
inactive: [4] 103 % of control | dose: 100.0 mg/kg/injection, schedule: Q01DX009 (ip), vehicle: Klucel (hydroxypropylcellulose) (HPC) 103 % of control | dose: 200.0 mg/kg/injection, schedule: Q01DX009 (ip), vehicle: Klucel (hydroxypropylcellulose) (HPC) 103 % of control

N#CC(C(=O)CCCC(=O)Nc1ccc(Cl)cc1)c1ccccc1Cl (configuration not stated)
inactive: [7] 113 % of control | [8] 113 % of control | [9] 106 % of control

COC(=O)CCCC/C=C\CCCCCCC1C=CCC1 (configuration not stated)
inactive: dose: 100.0 mg/kg/injection, schedule: Q01DX001 (ip), vehicle: saline 100 % of control | dose: 200.0 mg/kg/injection, schedule: Q01DX001 (ip), vehicle: saline 101 % of control | dose: 400.0 mg/kg/injection, schedule: Q01DX001 (ip), vehicle: saline 101 % of control
